Series [1] concerns A375. As to the kind of experiment: Compounds cellular killing (Cell Titer-Glo, 6 days, 2D). The series is classed as cell-based, human. The following applies: for cell-killing activity compared with Dxd: A375; for EC50 / Emax: Homo sapiens; for Emax: read-out: Emax. On the procedure:
(§1) The cell line was grown in a humidified 5% CO2 atmosphere at 37° C., and was regularly tested for the presence of mycoplasma with MycoAlert™ PLUS Mycoplasma Detection Kit (Lonza, LT07-710).
(§2) Incubation at 37° C., 5% CO2, overnight.
(§3) Adding the fresh growth-medium containing the varying concentrations of compounds, 50 ul/well.
(§4) Incubation at 37° C., 5% CO2, 6 days.
(§5) The cell viability detected by Cell Titer-Glo (Promega, G7573). Add 70 µL/well of CellTiter-Glo® Reagent in each well.
(§6) Allow the plates to incubate at room temperature for 10 minutes to stabilize luminescent signal.
(§7) Analyze with Microplate Reader.
(In general: Cellular ATP, detected with luciferase, serves as a proxy for viable cell number.)

Series [2] has as its system Calu-6. Described as above. The following applies: for EC50 / Emax: Homo sapiens; for Emax: read-out: Emax. The series is classed as cell-based. On the procedure:
as §1, §2, §3, §4, §5, §6, §7

Series [3] is described as follows: in vitro. The following applies: PAMPA. (The PAMPA barrier holds no transporters, so it reflects passive diffusion.)
For series [4], the system named is HCC1569. Description: Payload cellular killing, 2D. The series is classed as cell-based. The following applies: Homo sapiens, HCC1569, 2D (HER3 +++); for Emax: read-out: Emax.
Series [5] deals with MDA-MB-453. As to the kind of experiment: Payload cellular killing, 2D. Type of series: cell-based, human. The following applies: Homo sapiens, MDA-MB-453, 2D (HER3 +++); for Emax: read-out: Emax. Here is the method: as §1
The nature of series [6]: PAMPA. The following applies: free payload.
Series [7] has as its target cathepsin B (Homo sapiens, UniProt P07858). Description: Cathepsin B mediated rhodamine release. The series is classed as biochemical. The following applies: 150 nM, 0.3 unit activated cathepsin B, pH 5.5, 37° C., FIG. 21. On the procedure: CTSB was activated by incubation at ambient temperature for 15 min with 30 mM dithiothreitol and 15 mM EDTA at PH5.5.
Reaction buffer preparation: 25 mM sodium acetate & 1 mM EDTA, PH5.5.
Adding 150 nM NAcCys-13 & NAcCys-14 & NAcCys-15 & NAcCys-16 & NAcCys-17 and 0.3 unit activated cathepsin B mixture according to the experiment template.
The reaction mixtures were incubated at 37° C. immediately in the reader, then start reading using the kinetic set-up described. (TECAN SPARK: excitation/emission: 485/520 nm) (120 cycles, every one min) Gain Manual: 77%
Data analysis by GraphPad Prism 9 is illustrated in FIG. 21.

Setting [8] is: A-375, Table 27, free payload, A375, 2D (Her3 ++).
[9] abbreviates: A-375, […], Table 29, payload, A375, 6d, 2D (Her3++).
[10] abbreviates: A-375, Table 29, payload, A375, 6d, 2D (Her3++).
The mark [11] stands for this setting: Calu-6, Table 27, free payload, Calu-6, 2D (HER3 neg.).
Setting [12] is: Calu-6, […], Table 29, payload, Clau6, 6d, 2D (Her3 neg).
[13] abbreviates: Calu-6, Table 29, payload, Clau6, 6d, 2D (Her3 neg).
[14] abbreviates: A-375, Table 28, payload, A375, 2D (Her3 ++).
[15] abbreviates: Calu-6, Table 28, payload, Calu-6, 2D (HER3 neg.).

Here are results for seven compounds from patent US20250135026A1, “Antibody Drug Conjugates” (BeiGene Switzerland GmbH, priority 2021, published 2025).

Where two headings read alike, the source gives them in different places.

The term EC50 denotes the concentration giving half of the maximal effect. Low values mean higher potency in that assay, high ones lower potency in that assay. As usually defined, the Emax is the greatest response seen or fitted, relative to the assay's reference. As to `CC[C@@]1(O)C(=O)OCc2c1cc1n(c2=O)Cc2c-1nc1cc(F)c(C)c3c1c2[C@@H](NC(=O)C(C)(C)CO)CC3` [Compound 66, N-((1S,9S)-9-ethyl-5-fluoro-9-hydroxy-4-methyl-10,13-dioxo-2,3,9,10,13,15-hexahydro-1H,12H-benzo[de]pyrano[3′,4′:6,7]indolizino[1,2-b]quinolin-1-yl)-3-hydroxy-2,2-dimethylpropanamide], the “PAMPA -Log Pe” value worked out at 5.89. Moreover, the “cell-killing activity compared with Dxd” value in series [1] is reported as “stronger cell-killing activity than Dxd”. The same compound yielded an EC50 in series [1] (setting [8]) of 1.1 nM. This compound also returned an EC50 in series [1] (setting [9]) of 1.1 nM. Also, in series [1] (A-375, Table 21, A375), the 50% effective concentration (EC50) is 1.1 nM and the Emax came to 99.9%. The Emax in series [1] (setting [10]) worked out at 99.9%. The “cell-killing activity compared with Dxd” value in series [2] (Calu-6) is recorded as “stronger cell-killing activity than Dxd”. Further, in series [2] (Calu-6, Table 21, Calu-6), the half-maximal effective concentration (EC50) was found to be 0.3 nM. This compound showed an EC50 in series [2] (setting [11]) of 0.3 nM. Moreover, in series [2] (setting [12]), the EC50 came out at 0.3 nM. In addition, in series [2] (setting [13]), the maximal effect (Emax) was 97.3%. Besides, in series [2] (Table 21, Calu-6), the maximal effect (Emax) was 97.3%. For the same compound, the recovery in series [3] was determined as 79.7%.
`CC[C@@]1(O)C(=O)OCc2c1cc1n(c2=O)Cc2c-1nc1cc(F)c(C)c3c1c2[C@@H](NC(=O)CCO)CC3` [Compound 72]: the “PAMPA -Log Pe” value is given as 6.02. Further, in series [1], the “cell-killing activity compared with Dxd” value is on record as “less potent than Dxd”. Moreover, the concentration giving a half-maximal response (EC50) in series [1] (setting [8]) came to 4.4 nM. In addition, the half-maximal effective concentration (EC50) in series [1] (setting [9]) is 4.4 nM. In addition, in series [1] (A-375, Table 21, A375), a half-maximal response (EC50) required 4.4 nM and the Emax was 99.9%. Besides, the Emax in series [1] (setting [10]) came out at 99.9%. The “cell-killing activity compared with Dxd” value in series [2] (Calu-6) is listed as “less potent than Dxd”. The compound further yielded a concentration giving a half-maximal response (EC50) in series [2] (Calu-6, Table 21, Calu-6) of 2 nM. This compound displayed an EC50 in series [2] (setting [11]) of 2 nM. For the same compound, the EC50 in series [2] (setting [12]) was determined as 2 nM. For the same compound, in series [2] (setting [13]), the Emax came to 98.3%. In series [2] (Table 21, Calu-6), the Emax was 98.3%. In series [3], this compound registered a recovery of 48.1%.
For the compound `CC[C@@]1(O)C(=O)OCc2c1cc1n(c2=O)Cc2c-1nc1cc(F)c(C)c3c1c2[C@@H](NC(=O)CO)CC3` [DXd, reference compound], the EC50 in series [1] (setting [8]) is 2.8 nM; in series [1] (setting [14]), 3.2 nM; in series [1] (setting [9]), 2.7 nM; in series [1] (A-375, Table 21, A375), 2.8 nM; in series [2] (setting [15]), 1.2 nM; in series [4] (HCC1569, Table 28, payload), 2.9 nM. The compound also showed an EC50 in series [5] (MDA-MB-453, Table 28, payload) of 1.9 nM. The Emax in series [1] (A-375, Table 21, A375) was 100%; in series [1] (setting [10]), 100%; in series [2] (Calu-6, Table 21, Calu-6) it was 98%; in series [2] (setting [11]), 98%; in series [2] (setting [15]), 98.6%; in series [2] (setting [12]), 98.8%. Further, the maximal effect (Emax) in series [4] (HCC1569, Table 28, payload) was found to be 93.4%; in series [5] (MDA-MB-453, Table 28, payload), 98.7%. The “PAMPA -Log Pe” value in series [6] amounted to 5.89. The compound also displayed a recovery in series [3] of 95.2%.
`CC[C@@]1(O)C(=O)OCc2c1cc1n(c2=O)Cc2c-1nc1cc(F)c(C)c3c1c2[C@@H](N)CC3` [Exatecan, reference compound]: the EC50 turned out to be 0.7 nM in series [1] (setting [8]); 0.9 nM in series [1] (setting [14]); 0.3 nM in series [2] (setting [11]); 0.2 nM in series [2] (setting [15]); 0.5 nM in series [4] (Table 28, payload); 0.5 nM in series [5] (Table 28, payload). In addition, the maximal effect (Emax) came to 99.9% in series [1] (setting [8]); 96.2% in series [2] (setting [11]); 96.4% in series [2] (setting [15]); 94.5% in series [4] (HCC1569, Table 28, payload); 99.4% in series [5] (MDA-MB-453, Table 28, payload). Further, the “PAMPA -Log Pe” value in series [6] came to 5.75. In addition, the recovery in series [3] was 56%.
As for `CCOC(=O)Nc1ccc2c(c1)Oc1cc(NC(=O)OCc3ccc(NC(=O)[C@H](CCCNC(N)=O)NC(=O)[C@@H](NC(=O)[C@H](CNS(N)(=O)=O)NC(=O)CCOCCOCCOCCN4C(=O)CC(SC[C@H](NC(C)=O)C(=O)O)C4=O)C(C)C)cc3)ccc1C21OC(=O)c2ccccc21` (stereo partly shown) [NAcCys-14], the “cathepsin B mediated rhodamine release rate, rank” value in series [7] is “NAcCys-15˜NAcCys-13 (benchmark)>NAcCys-14>NAcCys-17”.
`CCOC(=O)Nc1ccc2c(c1)Oc1cc(NC(=O)OCc3ccc(NC(=O)[C@H](CCCNC(N)=O)NC(=O)[C@@H](NC(=O)[C@H](CS(=O)(=O)O)NC(=O)CCOCCOCCOCCN4C(=O)CC(SC[C@H](NC(C)=O)C(=O)O)C4=O)C(C)C)cc3)ccc1C21OC(=O)c2ccccc21` (stereo partly shown) [NAcCys-15]: the “cathepsin B mediated rhodamine release rate, rank” value in series [7] is recorded as “NAcCys-15˜NAcCys-13 (benchmark)>NAcCys-14>NAcCys-17”.
In the case of `CCOC(=O)Nc1ccc2c(c1)Oc1cc(NC(=O)OCc3ccc(NC(=O)[C@H](CCCNC(N)=O)NC(=O)[C@@H](NC(=O)[C@H](CP(=O)(O)O)NC(=O)CCOCCOCCOCCN4C(=O)CC(SC[C@H](NC(C)=O)C(=O)O)C4=O)C(C)C)cc3)ccc1C21OC(=O)c2ccccc21` (stereo partly shown) [NAcCys-17], the “cathepsin B mediated rhodamine release rate, rank” value in series [7] is reported as “NAcCys-15˜NAcCys-13 (benchmark)>NAcCys-14>NAcCys-17”.
